Usually IC50 stands for the concentration that inhibits the measured activity by half. A high value points to lower potency.

Where only a bound is given, the exact number is not on record here.

The first assay deals with BRG-1 (Homo sapiens, UniProt P51532). As to the kind of experiment: ATPase catalytic activity assay (ADP-Glo), BRG-1.
BRG-1, sequence (P51532 whole entry): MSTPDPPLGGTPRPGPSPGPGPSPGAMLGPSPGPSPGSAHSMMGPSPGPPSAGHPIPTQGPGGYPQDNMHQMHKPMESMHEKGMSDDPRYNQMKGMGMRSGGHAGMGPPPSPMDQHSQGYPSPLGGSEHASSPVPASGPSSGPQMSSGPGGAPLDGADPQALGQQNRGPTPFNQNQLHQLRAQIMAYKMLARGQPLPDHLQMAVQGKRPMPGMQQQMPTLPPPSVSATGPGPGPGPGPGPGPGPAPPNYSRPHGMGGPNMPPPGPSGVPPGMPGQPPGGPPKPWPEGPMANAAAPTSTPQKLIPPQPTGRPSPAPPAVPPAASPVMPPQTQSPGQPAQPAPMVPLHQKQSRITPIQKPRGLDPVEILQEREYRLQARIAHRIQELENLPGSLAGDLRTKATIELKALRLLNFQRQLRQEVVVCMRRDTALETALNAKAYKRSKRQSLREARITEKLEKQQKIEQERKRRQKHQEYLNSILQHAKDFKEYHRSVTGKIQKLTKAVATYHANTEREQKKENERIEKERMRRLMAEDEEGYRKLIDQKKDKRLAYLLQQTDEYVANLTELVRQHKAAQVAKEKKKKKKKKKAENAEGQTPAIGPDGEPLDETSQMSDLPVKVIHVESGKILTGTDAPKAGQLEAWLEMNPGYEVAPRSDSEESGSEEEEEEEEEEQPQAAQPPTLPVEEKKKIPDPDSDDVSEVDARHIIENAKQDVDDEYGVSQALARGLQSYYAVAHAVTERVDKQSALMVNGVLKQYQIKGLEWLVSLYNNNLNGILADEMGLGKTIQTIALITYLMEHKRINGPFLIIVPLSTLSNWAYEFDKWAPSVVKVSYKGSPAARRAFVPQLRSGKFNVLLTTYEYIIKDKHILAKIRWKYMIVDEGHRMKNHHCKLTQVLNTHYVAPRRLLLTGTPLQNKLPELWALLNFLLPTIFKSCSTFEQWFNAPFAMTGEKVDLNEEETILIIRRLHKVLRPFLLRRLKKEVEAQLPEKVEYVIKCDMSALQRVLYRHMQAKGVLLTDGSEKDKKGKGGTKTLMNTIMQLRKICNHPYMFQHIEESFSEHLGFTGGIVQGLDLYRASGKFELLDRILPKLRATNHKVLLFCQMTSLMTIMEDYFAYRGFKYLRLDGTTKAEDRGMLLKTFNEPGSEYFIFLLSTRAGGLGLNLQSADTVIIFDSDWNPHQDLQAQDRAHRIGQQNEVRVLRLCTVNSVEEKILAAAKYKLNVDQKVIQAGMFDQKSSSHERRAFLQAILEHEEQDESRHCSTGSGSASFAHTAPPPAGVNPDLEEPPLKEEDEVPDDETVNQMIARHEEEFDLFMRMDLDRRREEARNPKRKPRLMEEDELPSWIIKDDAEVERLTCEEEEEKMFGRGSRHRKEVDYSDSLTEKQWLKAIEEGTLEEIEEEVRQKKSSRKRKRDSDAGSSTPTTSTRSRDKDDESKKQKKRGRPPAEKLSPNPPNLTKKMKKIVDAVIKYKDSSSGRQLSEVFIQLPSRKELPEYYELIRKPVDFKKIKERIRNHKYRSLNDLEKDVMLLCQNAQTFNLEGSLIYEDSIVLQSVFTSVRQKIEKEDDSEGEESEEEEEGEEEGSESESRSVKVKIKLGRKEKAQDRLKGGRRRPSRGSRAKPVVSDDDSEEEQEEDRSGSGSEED
Conditions: not given
For orientation: ADP-Glo first removes unused ATP, then detects ADP through luciferase.
`C[C@@]1(F)COCc2ncc(C(=O)NCc3cc4nc(-c5ccnc(N6CCC6)n5)cnc4cn3)cc21` [Compound 183]: the IC50 fell in the range of 100 to 500 nM.
Molecule `C[C@@]1(C#N)COCc2ccc(C(=O)NCc3cc4nc(-c5ccccn5)sc4cn3)cc21` [Compound 440] gave an IC50 greater than 1000 nM.
Regarding `COc1cccc(-c2ccc3cnc(CNC(=O)c4ccc5c(c4)[C@](C)(C#N)COC5)cc3n2)n1` [Compound 492], the IC50 fell in the range of 100 to 500 nM.
Same read-out and setting: the value for `C[C@@]1(F)COCc2ncc(C(=O)NCc3cc4nc(-c5ccccc5)sc4cn3)cc21` [Compound 290] was 500 to 1000 nM; that for `CNC(=O)c1cccc(-c2ccc3cnc(CNC(=O)c4ccc5c(c4)[C@](C)(C#N)COC5)cc3n2)n1` [Compound 466] was 500 to 1000 nM; that for `C[C@@]1(F)COCc2ccc(C(=O)NCc3cc4nc(-c5cccc(C6(O)CC6)n5)ccc4cn3)cc21` [Compound 271] was 100 to 500 nM.
`Cc1ccn(-c2ccc3cnc(CNC(=O)c4ccc5c(c4)[C@](C)(C#N)COC5)cc3n2)n1` [Compound 503] came in with an IC50 greater than 1000 nM.
In turn, `C[C@@]1(C#N)COCc2ccc(C(=O)NCc3cc(C#Cc4ccccc4)c(F)cn3)cc21` [Compound 20] gave a 50% inhibitory concentration (IC50) greater than 1000 nM.
Same read-out and setting: then `CN1Cc2nc(-c3ccc4cnc(CNC(=O)c5ccc6c(c5)[C@](C)(C#N)COC6)cc4n3)ccc2C1=O` [Compound 427], with 100 to 500 nM; and `C[C@@]1(C#N)COCc2ccc(C(=O)NCc3cc(N4CC5(CCN(c6ccccc6)C5)C4)ccn3)cc21` [Compound 12], with greater than 1000 nM.
`C[C@@]1(C#N)COCc2ccc(C(=O)NCc3cc(C4CCN(c5cccc(C(F)F)n5)C4)ccn3)cc21` (some centres unmarked) [Compound 69]: the IC50 lay within 500 to 1000 nM.
Molecule `C[C@@]1(F)COCc2ccc(C(=O)NCc3cc4nc(-c5ccnc(N6CCC6)n5)sc4cn3)cc21` [Compound 245] came in with a concentration for half-maximal inhibition (IC50) of 500 to 1000 nM.
The molecule `C[C@@]1(F)COCc2ccc(C(=O)NCc3cc4cc(-c5ccnn(C6CC6)c5=O)ccc4cn3)cc21` [Compound 257] yielded an IC50 of 500 to 1000 nM.
Molecule `O=C(NCc1cc2nc(-c3cncc(N4CCC4)n3)ccc2cn1)c1cc(F)c2c(c1)[C@@](F)(C(F)F)COC2` [Compound 352] yielded a concentration for half-maximal inhibition (IC50) of 100 to 500 nM.
On to `COc1cc(C(F)F)ccc1-c1ccc2cnc(CNC(=O)c3ccc4c(c3)[C@](C)(C#N)COC4)cc2n1` [Compound 157], for which the IC50 is 100 to 500 nM.
The molecule `COC(=O)c1cccc(C#Cc2ccnc(CNC(=O)c3ccc4c(c3)[C@](C)(C#N)COC4)c2)c1` [Compound 3] returned an IC50 greater than 1000 nM.
Still for that read-out and setting: then `C[C@@]1(C#N)COCc2ccc(C(=O)NCc3ncc4ccc(-c5cncc(C6CC6)n5)nc4c3F)cc21` [Compound 130], with 100 to 500 nM.

The same assay, now with this note: 1 h, read-out: BRG1 Max % Inhibition, ADP-Glo, 30 nM BRG-1, 400 μM ATP.
Consider `C[C@@]1(F)COCc2ncc(C(=O)NCc3cc4nc(-c5ccnc(N6CCC6)n5)cnc4cn3)cc21` [Compound 183], for which the Emax amounted to 82%.
For `C[C@@]1(C#N)COCc2ccc(C(=O)NCc3cc4nc(-c5ccccn5)sc4cn3)cc21` [Compound 440], the Emax was found to be 40%.
On the same count and under the same terms, then `COc1cccc(-c2ccc3cnc(CNC(=O)c4ccc5c(c4)[C@](C)(C#N)COC5)cc3n2)n1` [Compound 492], with 91%; and `C[C@@]1(F)COCc2ncc(C(=O)NCc3cc4nc(-c5ccccc5)sc4cn3)cc21` [Compound 290], with 53%.
As to `CNC(=O)c1cccc(-c2ccc3cnc(CNC(=O)c4ccc5c(c4)[C@](C)(C#N)COC5)cc3n2)n1` [Compound 466], the Emax is 79%.
Consider `C[C@@]1(F)COCc2ccc(C(=O)NCc3cc4nc(-c5cccc(C6(O)CC6)n5)ccc4cn3)cc21` [Compound 271], for which the Emax was found to be 95%.
Turning to `Cc1ccn(-c2ccc3cnc(CNC(=O)c4ccc5c(c4)[C@](C)(C#N)COC5)cc3n2)n1` [Compound 503], the Emax came to 72%.
`C[C@@]1(C#N)COCc2ccc(C(=O)NCc3cc(C#Cc4ccccc4)c(F)cn3)cc21` [Compound 20]: the Emax is 41%.
Consider `CN1Cc2nc(-c3ccc4cnc(CNC(=O)c5ccc6c(c5)[C@](C)(C#N)COC6)cc4n3)ccc2C1=O` [Compound 427], for which the Emax worked out at 87%.
Turning to `C[C@@]1(C#N)COCc2ccc(C(=O)NCc3cc(N4CC5(CCN(c6ccccc6)C5)C4)ccn3)cc21` [Compound 12], the Emax was determined as 22%.
The same measure, in the same setting: the value for `C[C@@]1(C#N)COCc2ccc(C(=O)NCc3cc(C4CCN(c5cccc(C(F)F)n5)C4)ccn3)cc21` (some centres unmarked) [Compound 69] was 50%.
Consider `C[C@@]1(F)COCc2ccc(C(=O)NCc3cc4nc(-c5ccnc(N6CCC6)n5)sc4cn3)cc21` [Compound 245], for which the Emax worked out at 75%.
Take `C[C@@]1(F)COCc2ccc(C(=O)NCc3cc4cc(-c5ccnn(C6CC6)c5=O)ccc4cn3)cc21` [Compound 257]: the Emax came out at 65%.
Still for that read-out and setting: then `O=C(NCc1cc2nc(-c3cncc(N4CCC4)n3)ccc2cn1)c1cc(F)c2c(c1)[C@@](F)(C(F)F)COC2` [Compound 352], with 89%; and `COc1cc(C(F)F)ccc1-c1ccc2cnc(CNC(=O)c3ccc4c(c3)[C@](C)(C#N)COC4)cc2n1` [Compound 157], with 96%; and `COC(=O)c1cccc(C#Cc2ccnc(CNC(=O)c3ccc4c(c3)[C@](C)(C#N)COC4)c2)c1` [Compound 3], with 78%.
Turning to `C[C@@]1(C#N)COCc2ccc(C(=O)NCc3ncc4ccc(-c5cncc(C6CC6)n5)nc4c3F)cc21` [Compound 130], the Emax was found to be 90%.

For a further assay, the target named is BRM (Homo sapiens, UniProt P51531). As to the kind of experiment: ATPase catalytic activity assay (ADP-Glo), BRM. Particulars: 30 nM BRM, 400 μM ATP.
BRM, sequence (P51531 whole entry): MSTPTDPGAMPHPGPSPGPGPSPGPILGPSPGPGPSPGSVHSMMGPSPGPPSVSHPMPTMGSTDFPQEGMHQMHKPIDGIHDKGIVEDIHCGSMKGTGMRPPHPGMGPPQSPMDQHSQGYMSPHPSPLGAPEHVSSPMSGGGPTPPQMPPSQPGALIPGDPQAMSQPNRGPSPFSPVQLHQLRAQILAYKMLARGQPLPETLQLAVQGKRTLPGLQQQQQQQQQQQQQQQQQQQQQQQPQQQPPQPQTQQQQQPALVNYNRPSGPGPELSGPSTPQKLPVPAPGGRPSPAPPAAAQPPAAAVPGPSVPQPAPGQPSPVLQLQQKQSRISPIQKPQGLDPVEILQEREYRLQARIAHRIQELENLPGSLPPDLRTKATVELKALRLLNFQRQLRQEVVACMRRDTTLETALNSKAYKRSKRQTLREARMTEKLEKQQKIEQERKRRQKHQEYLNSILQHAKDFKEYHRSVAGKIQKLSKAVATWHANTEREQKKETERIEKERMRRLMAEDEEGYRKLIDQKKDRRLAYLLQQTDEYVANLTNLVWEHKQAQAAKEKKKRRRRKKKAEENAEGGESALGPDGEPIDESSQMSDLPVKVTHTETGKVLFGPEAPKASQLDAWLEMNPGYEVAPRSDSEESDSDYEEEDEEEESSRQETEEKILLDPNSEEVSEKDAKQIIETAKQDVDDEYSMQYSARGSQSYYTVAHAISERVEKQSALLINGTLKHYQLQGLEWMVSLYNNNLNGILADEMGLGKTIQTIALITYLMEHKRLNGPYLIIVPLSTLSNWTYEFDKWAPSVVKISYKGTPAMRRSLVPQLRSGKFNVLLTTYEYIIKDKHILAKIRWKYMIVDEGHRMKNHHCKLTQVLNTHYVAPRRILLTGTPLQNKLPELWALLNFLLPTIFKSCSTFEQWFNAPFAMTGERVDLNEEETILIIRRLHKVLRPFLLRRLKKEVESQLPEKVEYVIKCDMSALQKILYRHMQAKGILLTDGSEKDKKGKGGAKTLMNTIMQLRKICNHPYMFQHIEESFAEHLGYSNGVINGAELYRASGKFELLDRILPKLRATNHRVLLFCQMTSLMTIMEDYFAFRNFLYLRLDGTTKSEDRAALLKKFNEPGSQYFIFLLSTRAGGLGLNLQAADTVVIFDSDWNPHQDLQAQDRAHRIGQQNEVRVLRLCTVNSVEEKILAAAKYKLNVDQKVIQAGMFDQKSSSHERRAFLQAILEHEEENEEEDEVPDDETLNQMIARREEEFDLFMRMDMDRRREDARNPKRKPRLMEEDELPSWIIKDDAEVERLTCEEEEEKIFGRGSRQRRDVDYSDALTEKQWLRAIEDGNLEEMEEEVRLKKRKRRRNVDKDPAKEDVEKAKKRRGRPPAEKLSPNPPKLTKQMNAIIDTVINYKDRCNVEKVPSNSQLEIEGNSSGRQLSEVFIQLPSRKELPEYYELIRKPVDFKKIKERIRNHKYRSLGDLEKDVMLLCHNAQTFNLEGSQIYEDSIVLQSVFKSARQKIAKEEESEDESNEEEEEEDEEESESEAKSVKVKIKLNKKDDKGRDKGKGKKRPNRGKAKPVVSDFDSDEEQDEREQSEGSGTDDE
In the case of `C[C@@]1(F)COCc2ncc(C(=O)NCc3cc4nc(-c5ccnc(N6CCC6)n5)cnc4cn3)cc21` [Compound 183], the “BRM Max % Inhibition” value was determined as 98%.
As to `C[C@@]1(C#N)COCc2ccc(C(=O)NCc3cc4nc(-c5ccccn5)sc4cn3)cc21` [Compound 440], the “BRM Max % Inhibition” value is reported as 88%.
Same read-out and setting: the value for `COc1cccc(-c2ccc3cnc(CNC(=O)c4ccc5c(c4)[C@](C)(C#N)COC5)cc3n2)n1` [Compound 492] was 99%; that for `C[C@@]1(F)COCc2ncc(C(=O)NCc3cc4nc(-c5ccccc5)sc4cn3)cc21` [Compound 290] was 94%.
For `CNC(=O)c1cccc(-c2ccc3cnc(CNC(=O)c4ccc5c(c4)[C@](C)(C#N)COC5)cc3n2)n1` [Compound 466], the “BRM Max % Inhibition” value came to 99%.
Same read-out and setting: then `C[C@@]1(F)COCc2ccc(C(=O)NCc3cc4nc(-c5cccc(C6(O)CC6)n5)ccc4cn3)cc21` [Compound 271], with 104%.
Consider `Cc1ccn(-c2ccc3cnc(CNC(=O)c4ccc5c(c4)[C@](C)(C#N)COC5)cc3n2)n1` [Compound 503], for which the “BRM Max % Inhibition” value turned out to be 94%.
In the case of `C[C@@]1(C#N)COCc2ccc(C(=O)NCc3cc(C#Cc4ccccc4)c(F)cn3)cc21` [Compound 20], the “BRM Max % Inhibition” value was 83%.
For `CN1Cc2nc(-c3ccc4cnc(CNC(=O)c5ccc6c(c5)[C@](C)(C#N)COC6)cc4n3)ccc2C1=O` [Compound 427], the “BRM Max % Inhibition” value is given as 99%.
As to `C[C@@]1(C#N)COCc2ccc(C(=O)NCc3cc(N4CC5(CCN(c6ccccc6)C5)C4)ccn3)cc21` [Compound 12], the “BRM Max % Inhibition” value was 79%.
The same measure, in the same setting: the value for `C[C@@]1(C#N)COCc2ccc(C(=O)NCc3cc(C4CCN(c5cccc(C(F)F)n5)C4)ccn3)cc21` (some centres unmarked) [Compound 69] was 90%.
Same read-out and setting: then `C[C@@]1(F)COCc2ccc(C(=O)NCc3cc4nc(-c5ccnc(N6CCC6)n5)sc4cn3)cc21` [Compound 245], with 96%.
On the same count and under the same terms, the value for `C[C@@]1(F)COCc2ccc(C(=O)NCc3cc4cc(-c5ccnn(C6CC6)c5=O)ccc4cn3)cc21` [Compound 257] was 92%; that for `O=C(NCc1cc2nc(-c3cncc(N4CCC4)n3)ccc2cn1)c1cc(F)c2c(c1)[C@@](F)(C(F)F)COC2` [Compound 352] was 99%.
Regarding `COc1cc(C(F)F)ccc1-c1ccc2cnc(CNC(=O)c3ccc4c(c3)[C@](C)(C#N)COC4)cc2n1` [Compound 157], the “BRM Max % Inhibition” value is listed as 99%.
`COC(=O)c1cccc(C#Cc2ccnc(CNC(=O)c3ccc4c(c3)[C@](C)(C#N)COC4)c2)c1` [Compound 3]: the “BRM Max % Inhibition” value was found to be 99%.
Turning to `C[C@@]1(C#N)COCc2ccc(C(=O)NCc3ncc4ccc(-c5cncc(C6CC6)n5)nc4c3F)cc21` [Compound 130], the “BRM Max % Inhibition” value came to 97%.

Staying with this assay, now noted: BRM ATPase: IC50 (uM), 30 nM BRM, 400 μM ATP.
`C[C@@]1(F)COCc2ncc(C(=O)NCc3cc4nc(-c5ccnc(N6CCC6)n5)cnc4cn3)cc21` [Compound 183] registered a 50% inhibitory concentration (IC50) of less than 0.1 µM.
Still for that read-out and setting: then `C[C@@]1(C#N)COCc2ccc(C(=O)NCc3cc4nc(-c5ccccn5)sc4cn3)cc21` [Compound 440], with 0.1 to 0.5 µM; and `COc1cccc(-c2ccc3cnc(CNC(=O)c4ccc5c(c4)[C@](C)(C#N)COC5)cc3n2)n1` [Compound 492], with less than 0.1 µM; and `C[C@@]1(F)COCc2ncc(C(=O)NCc3cc4nc(-c5ccccc5)sc4cn3)cc21` [Compound 290], with 0.1 to 0.5 µM.
Same read-out and setting: the value for `CNC(=O)c1cccc(-c2ccc3cnc(CNC(=O)c4ccc5c(c4)[C@](C)(C#N)COC5)cc3n2)n1` [Compound 466] was less than 0.1 µM; that for `C[C@@]1(F)COCc2ccc(C(=O)NCc3cc4nc(-c5cccc(C6(O)CC6)n5)ccc4cn3)cc21` [Compound 271] was less than 0.1 µM.
With `Cc1ccn(-c2ccc3cnc(CNC(=O)c4ccc5c(c4)[C@](C)(C#N)COC5)cc3n2)n1` [Compound 503], the IC50 lay in the range of 0.1 to 0.5 µM.
As to `C[C@@]1(C#N)COCc2ccc(C(=O)NCc3cc(C#Cc4ccccc4)c(F)cn3)cc21` [Compound 20], the IC50 was 0.5 to 1 µM.
Turning to `CN1Cc2nc(-c3ccc4cnc(CNC(=O)c5ccc6c(c5)[C@](C)(C#N)COC6)cc4n3)ccc2C1=O` [Compound 427], the IC50 was less than 0.1 µM.
`C[C@@]1(C#N)COCc2ccc(C(=O)NCc3cc(N4CC5(CCN(c6ccccc6)C5)C4)ccn3)cc21` [Compound 12] came in with an IC50 greater than 1 µM.
On to `C[C@@]1(C#N)COCc2ccc(C(=O)NCc3cc(C4CCN(c5cccc(C(F)F)n5)C4)ccn3)cc21` (some centres unmarked) [Compound 69], for which the IC50 lay in the range of 0.1 to 0.5 µM.
`C[C@@]1(F)COCc2ccc(C(=O)NCc3cc4nc(-c5ccnc(N6CCC6)n5)sc4cn3)cc21` [Compound 245]: the IC50 fell in the range of 0.1 to 0.5 µM.
Turning to `C[C@@]1(F)COCc2ccc(C(=O)NCc3cc4cc(-c5ccnn(C6CC6)c5=O)ccc4cn3)cc21` [Compound 257], the half-maximal inhibitory concentration (IC50) lay within 0.1 to 0.5 µM.
Molecule `O=C(NCc1cc2nc(-c3cncc(N4CCC4)n3)ccc2cn1)c1cc(F)c2c(c1)[C@@](F)(C(F)F)COC2` [Compound 352] registered an IC50 of less than 0.1 µM.
`COc1cc(C(F)F)ccc1-c1ccc2cnc(CNC(=O)c3ccc4c(c3)[C@](C)(C#N)COC4)cc2n1` [Compound 157] gave an IC50 of less than 0.1 µM.
For `COC(=O)c1cccc(C#Cc2ccnc(CNC(=O)c3ccc4c(c3)[C@](C)(C#N)COC4)c2)c1` [Compound 3], the IC50 was less than 0.1 µM.
For the molecule `C[C@@]1(C#N)COCc2ccc(C(=O)NCc3ncc4ccc(-c5cncc(C6CC6)n5)nc4c3F)cc21` [Compound 130], the IC50 was less than 0.1 µM.

For the origin of these results see patent publication US12441726B2, “Compounds and uses thereof” (Foghorn Therapeutics Inc., priority 2020, dated 2025).
